Data published in patent EP2759295A1, “Foam cell specific Liver X Receptor (LXR) alpha agonist, SIRT1 inhibitors as well as p300 inhibitors as pharmaceutically active agents” (Max-Planck-Gesellschaft zur Förderung der Wissenschaften …, priority 2013, dated 2014).
Like-named read-outs stand apart in the source and are kept apart here.

Tests used:
HepG2 cells = assay: Western-Blot analysis of p53 (Lys382) acetylation in HepG2 cells; format: cell-based, human; conditions: 30 µM, 16 hours, 20 µM Etoposide
Procedure: HepG2 cells were seeded in 6-well plates (2.5 x 10^5 cells/well). 48 h later cells were treated with 20 µM Etoposide to induce p53 acetylation and directly afterwards with NP 1 or DMSO (VC) for 16 h. Cells were harvested and separated into cytosolic and nuclear fractions (NE-PER Nuclear and Cytoplasmic Extraction Reagents). Samples were denatured and SDS-PAGE was performed using NuPAGE Novex 4-12% Bis-Tris Gels. Proteins were blotted on nitrocellulose Hybond ECL membrane. Primary antibodies used were β-actin, p53 and acetyl-p53 (Lys382). Secondary antibodies were HRP-conjugated goat anti-rabbit IgG-HRP and goat anti-mouse IgG-HRP. Detection was performed with Western Lightning Plus-ECL solution. Membranes were stripped with Restore Plus Western Blot Stripping Buffer for 15 min.
Densitometry was performed in GelAnalyzer 2010a, which is a software tool to quantitatively measure the optical density. It provides accurate Western-Blot analysis and helps to detect differences which are not visible by the naked eye. Log(p53-Ac/p53-total) was calculated for every sample and statistical analysis was performed.

SIRT1 = target: T1, SIRT1 (Homo sapiens, UniProt Q96EB6); assay: MALDI-TOF MS deacetylation assay; format: biochemical
T1 construct: purchased Biomol International, Inc. / Enzo Life Sciences / BlueSky BioTech
T1 sequence (Q96EB6 1-747): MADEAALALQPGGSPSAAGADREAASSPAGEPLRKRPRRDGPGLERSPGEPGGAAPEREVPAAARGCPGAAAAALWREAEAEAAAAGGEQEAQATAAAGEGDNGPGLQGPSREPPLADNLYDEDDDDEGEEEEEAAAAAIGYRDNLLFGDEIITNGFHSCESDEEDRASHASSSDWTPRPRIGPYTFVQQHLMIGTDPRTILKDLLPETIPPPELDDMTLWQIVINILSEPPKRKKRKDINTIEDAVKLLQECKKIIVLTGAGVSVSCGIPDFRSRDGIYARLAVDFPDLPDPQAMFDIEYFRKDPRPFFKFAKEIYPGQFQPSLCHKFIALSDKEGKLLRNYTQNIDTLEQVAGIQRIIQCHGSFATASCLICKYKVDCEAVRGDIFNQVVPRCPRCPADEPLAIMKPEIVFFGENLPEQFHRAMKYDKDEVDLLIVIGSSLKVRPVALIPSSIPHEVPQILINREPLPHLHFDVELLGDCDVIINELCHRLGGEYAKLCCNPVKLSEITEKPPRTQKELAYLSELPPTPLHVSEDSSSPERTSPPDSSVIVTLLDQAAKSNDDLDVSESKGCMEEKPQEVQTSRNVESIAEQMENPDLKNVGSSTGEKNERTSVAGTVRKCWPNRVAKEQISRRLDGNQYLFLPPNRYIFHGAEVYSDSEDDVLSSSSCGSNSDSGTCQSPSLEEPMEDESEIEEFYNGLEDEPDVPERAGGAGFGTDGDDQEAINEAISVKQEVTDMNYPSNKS
Procedure: The assay was performed in a 20 µL reaction. 0.5 µM acetylated peptide and 120 µM NAD^+ in reaction buffer (50 mM Tris-acetate (pH 8), 137 mM NaCl, 2.7 mM KCI, 1 mM MgCl2, 5 mM DTT, 0.05 % BSA) were mixed with compound or DMSO (VC). Reactions were initiated by adding 10 nM of SIRT1. After incubation for 30 min at 37°C, reactions were stopped by formic acid and nicotinamide (f.c. 1% and 5 mM, respectively). Reactions were performed with histone H4 peptide and 1% DMSO unless stated otherwise. […]
Acetylated and deacetylated peptides were mixed at different ratios in the respective buffer including stop solution and reaction components except the enzyme. Purification, preparation and MS detection were conducted in parallel to reaction samples. CCs were generated for IC50 value determination but not for the screening.
Peptides were purified by Oasis HLB µElution Plates using a vacuum manifold [S. Sauer et al. J Chromatogr A (2004), 1049, 9-16]. Plate columns were conditioned by 70% ACN and equilibrated with 0.1% TFA. Samples were loaded, desalted by 0.1 % TFA and H2O and eluted in 70% ACN.
For ultra thin layer (UTL), supernatant of saturated CHCA in ACN / H2O (2:1) and 0.1% TFA. was mixed with isopropanol (1:3) and was spread on a ground steel target. After solvent evaporated excess of CHCA was removed from target surface with a tissue [D. Fenyo et al. J Vis Exp (2007), 192]. The matrix used for sample preparation contained saturated CHCA in ACN / 0.1% TFA (1:2) or ACN / H2O (1:2) depending on peptide size [S. L. Cohen et al. Anal Chem (1996), 68, 31-37]. HLB eluted samples and matrix were mixed (1:4) and spotted on the UTL.
Samples were measured automatically (AutoXecute software, Bruker Daltonik GmbH) using an ultraflex II MALDI-TOF mass spectrometer (Bruker Daltonik GmbH) in positive ion reflector mode. Laser power and detector gain were adjusted prior to every automatic run, which were performed in random walk movement.
For assay optimization and IC50 determination, 1000 shots were accumulated in 100 satisfactory shot steps (fuzzy control). At least one peak within a defined mass range had to fulfill the following criteria for the spectra to be accumulated: Absolute (min.) intensity: 800; S/N: 15; peak width: 0.2.
A script (Bruker Daltonik GmbH) was employed to analyze peptide peaks in a batch process (flexAnalysis software, Version 3.0, Bruker Daltonik GmbH). Percentage of de-/acetylation were calculated using the sum of the first four monoisotopic peak intensities. CC was generated by plotting experimental vs. calculated peptide acetylation. Measured sample values were interpolated with CC to determine de-/acetylation values (GraphPad Prism). When no CC was created, peak intensity ratios were generated. Verified single NP screening hits had to pass a peak ratio of ≤ 0.1 (deac/ac).
As IC50 values were not gained at initial velocity conditions, values were corrected by a conversion factor according to Wu et al. (Table 5) [G. Wu et al. J Biomol Screen (2003), 8, 694-700].

[1] = target: T2, LXRα ligand binding domain (LBD) (Homo sapiens, UniProt Q13133); assay: dual luciferase reporter gene assay with LXRα ligand binding domain in HEK-293 cells; format: cell-based
T2 construct: expressed in transfected cells; host or cells: HEK-293
T2 sequence (Q13133 164-447): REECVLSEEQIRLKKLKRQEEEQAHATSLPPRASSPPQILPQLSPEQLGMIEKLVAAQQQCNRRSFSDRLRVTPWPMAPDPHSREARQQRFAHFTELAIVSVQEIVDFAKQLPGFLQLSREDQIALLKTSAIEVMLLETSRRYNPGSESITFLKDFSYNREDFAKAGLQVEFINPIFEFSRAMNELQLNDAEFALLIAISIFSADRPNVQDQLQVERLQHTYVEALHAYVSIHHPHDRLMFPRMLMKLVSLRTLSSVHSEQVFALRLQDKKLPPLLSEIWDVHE
Procedure: The ligand binding domain (LBD) of LXRα (amino acids 164 to 447) or LXRβ (amino acids 154 to 461) was cloned into pBIND [Renilla/Amp] vector (Promega). Selection and amplification were performed in E-coli cells. Purification of the plasmids was performed with a plasmid purification kit (Qiagen). For transfection HEK-293 cells were plated in 96-well plates (TPP) at a density of 3.5 x 10^4 cells/well for 24 h. To investigate the ligand binding on LXRα ligand binding domain, 0.04 ng of renilla luciferase coding plasmide pGL4.75 (Promega), 0.04 ng of LXRα-LBD/GAL4-DBD plasmide and 80 ng of firefly luciferase coding plasmide pGL4.31 (Promega) were used in a total volume of 200 µL for each well. In LXRβ binding assay 40 ng of LXRβ-LBD/GAL4-DBD plasmide were applied in each transfection mix. Transfection was carried out for 4 h with Lipofectamine 2000 Transfection Reagent (Invitrogen) in Opti-MEM medium (Invitrogen). Ligand treatment was performed at different concentrations for 24 h. For lysis and detection dual-luciferase reporter gene assay system (Promega) and POLARstar Omega (BMG LABTECH) were used.

macrophages [2] = assay: microarray genome-wide gene expression and GSEA in macrophages; format: cell-based, human; conditions: 10 µM
Procedure: Microarray analyses were performed according to instructions of Illumina's TotalPrep RNA Amplification Kit followed by hybridisation on HumanHT-12 v3 or HumanHT-12 v4 Expression BeadChips (illumina). Data analysis was performed with GenomeStudio V2011.1 (illumina). Differential expression analysis was performed on background-subtracted data with cubic spline normalization and Benjamini-Hochberg FDR correction. Significant data was considered to have a detection p-value of ≤ 0.01 and differential expression p-value of ≤ 0.05 according to Illumina's t-test error model. […] Bead array data were validated by quantitative real-time PCR. The Gene Distance Matrix was conducted in Euclidean space using the MeV 4.3 software tool [Saeed A.I. et al. Biotechniques (2003), 34, 374-378]. Gene Set Enrichment Analysis (GSEA) was performed as described elsewhere [Subramanian A. et al. Proc. Natl. Acad. Sci. (2005) 102, 15545-15550] with the following parameters: 1000 gene set permutations, weighted enrichment statistics, minimal gene set size of 5, and signal-to-noise metric. Enrichment of pathways was tested using the Reactome (v3.0) and the KEGG (v3.0) database from the Molecular Signature Database (MSigDB). Heatmaps were carried out with Mayday 2.8 [Battke F. et al. BMC Bioinformatics (2012), 11, 121]. […]

macrophages [3] = assay: triglyceride content in macrophages (Triglyceride Assay Kit); format: cell-based, human; conditions: 10 µM, 48 h
Procedure: (§1) THP-1 monocytes were plated out into 24-well plates (Nunc) at a density of 2 x 10^5 cells/well. After differentiation and treatment cells were lysed with 100 µL lysis buffer (PBS, 0.25 M NaCl, 1% Triton X-100). Total and free cholesterol were determined using the colorimetric enzymatic Amplex Red Cholesterol Assay Kit (Invitrogen). Triglycerides were quantified by Triglyceride Assay Kit (BioVision). For normalisation protein content was determined with Pierce 660 nm Protein Assay Reagent (Thermo Scientific).

THP-1 macrophages [4] = assay: qPCR gene expression of LXRα target genes in THP-1 macrophages; format: cell-based, human; conditions: 10 µM
Procedure: (§2) For generating macrophages differentiation was induced by 10^-8 M Phorbol 12-myristate 13-acetate (PMA) (Sigma-Aldrich) for 48 h. Ligand treatment of macrophages was performed for further 24 h. To induce foam cell formation macrophages were treated for additional 48 h with 100 µg/mL modified human oxidized low density lipoprotein (oxLDL) obtained from Source BioScience (RP-048). Ligand treatment was performed simultaneously with foam cell formation. Cholesterol loading and treatment was controlled with Oil Red O staining (Alfa Aeser). To investigate ligand induced effects on cell proliferation of THP-1 macrophages CellTiter-Glo Luminescent Cell Viability Assay (Promega) was utilized.
(§3) Total RNA isolation and purification was performed by using the RNeasy Mini Kit (QIAGEN) and RNase-Free DNase Set (QIAGEN). cDNA was generated by reverse transcription using the High Capacity cDNA Reverse Transcription Kit (Applied Biosystems). Gene expression was quantified using the SYBR Green PCR Master Mix (Applied Biosystems) and ABI 7900HT Fast Real Time PCR System (Applied Biosystems). In each reaction 0.8 ng/µL cDNA and 0.2 µM primers were used. Gene expression was calculated with the ΔΔCt-method. β-Actin was used for normalisation.

THP-1 macrophages [5] = assay: CellTiter-Glo viability assay in THP-1 macrophages; format: cell-based, human
Procedure: as §2

foam cells [6] = assay: siRNA-mediated LXRα/β knockdown in foam cells with qPCR; format: cell-based, human; conditions: 10 µM ligand for 24 h
Procedure: Target specificity of ligand-dependent gene expression effects was investigated in siRNA-mediated LXRα and β-knockdown foam cells with subsequent qPCR or microarray analysis. Therefore, 2 x 10^5 THP-1 cells/well were differentiated in 24-well plate and induced to foam cells prior to knockdown as described above. Foam cells were transfected using TransIT-TKO transfection reagent (Mirus Bio), for combined knockdown with 15 nM LXRα Silencer Validated siRNA (Ambion, ID 5458) and 15 nM LXRβ Silencer Select Validated siRNA (Ambion, ID s14684) and with 30 nM LXRα or LXRβ for individual knockdowns, respectively. As control we used 30 nM Silencer Select Negative Control #1 (Ambion). Transfection was carried out for 48 h and followed by treatment with 10 µM ligand or vehicle control for 24 h.
as §3

foam cells [7] = assay: microarray genome-wide gene expression and GSEA in foam cells; format: cell-based, human; conditions: 10 µM
Procedure: Microarray analyses were performed according to instructions of Illumina's TotalPrep RNA Amplification Kit followed by hybridisation on HumanHT-12 v3 or HumanHT-12 v4 Expression BeadChips (illumina). Data analysis was performed with GenomeStudio […].1 (illumina). Differential expression analysis was performed on background-subtracted data with cubic spline normalization and Benjamini-Hochberg FDR correction. […] Gene expression data were submitted in MIAME-compliant form to the NCBI Gene Expression Omnibus database (GSE39079). Bead array data were validated by quantitative real-time PCR. The Gene Distance Matrix was conducted in Euclidean space using the MeV 4.3 software tool [[…]. et al. Biotechniques (2003), 34, 374-378]. Gene Set Enrichment Analysis (GSEA) was performed as described elsewhere [Subramanian A. et al. Proc. Natl. Acad. Sci. […] Enrichment of pathways was tested using the Reactome (v3.0) and the KEGG (v3.0) database from the Molecular Signature Database (MSigDB). Heatmaps were carried out with […]. et al. BMC Bioinformatics (2012), 11, 121]. For presentation of treatment effects in the heatmap, the pathway normalized enrichment score (NES) was adjusted with the appropriate FDR as follows: adjustedNES = (1-FDR) x NES.

foam cells [8] = assay: cholesterol content in foam cells (Amplex Red Cholesterol Assay); format: cell-based, human; conditions: 10 µM, 48 h
Procedure: as §1

foam cells [9] = assay: triglyceride content in foam cells (Triglyceride Assay Kit); format: cell-based, human; conditions: 10 µM, 48 h
Procedure: as §1

Structure (SMILES)	p53 acetylation in the nuclear fraction (HepG2 cells)	IC50 (SIRT1; Table 3, corrected values (see Table 5), read-out: IC50 values) [µM]	IC50 (SIRT1; corrected by conversion factor according to Wu et al., read-out: Corrected IC50) [µM]	IC50 (SIRT1; uncorrected, not at initial velocity conditions, read-out: Obtained IC50') [µM]	Efficacy ([1]; +DMSO, reporter gene transcription vs. T09) [%]	specificity LXRα vs. LXRβ ([1]; reporter-gene assays with LXRα and LXRβ LBD)	expression of genes involved in lipid metabolism processes (macrophages [2])	triglyceride level (macrophages [3])	expression of LXRα target genes (LXRα, SREBF1, ABCA1, APOE) (THP-1 macrophages [4])	no cytotoxic effects / no reduction of cellular viability up to (THP-1 macrophages [5])	gene expression of LXRα and ABCA1 after LXRα/β knockdown (foam cells [6])	Lipid metabolism processes (gene set enrichment) (foam cells [7])	triacylglyceride biosynthesis (transcriptional regulation) (foam cells [7])	total and esterified cholesterol content (foam cells [8])	triglyceride levels (foam cells [9])
COc1cc(-c2ccc(O)cc2)c(OC)c(O)c1C1=CC(=O)OC1CC(=O)O (stereo not drawn) [NP 1, 2-(3-(3,4'-dihydroxy-2,5-dimethoxybiphenyl-4-yl)-5-oxo-2,5-dihydrofuran-2-yl)acetic acid]	significant increase of p53 acetylation	9.7 ± 0.7	9.7 ± 0.7	13 ± 1											
O=S(=O)(c1ccccc1)N(CC(F)(F)F)c1ccc(C(O)(C(F)(F)F)C(F)(F)F)cc1 [T09, reference compound]					100	bound to LXRα and LXRβ with similar affinity	activated	stayed unchanged	increased expression of LXRα target genes	no cytotoxic effects	significant reduction of LXRα and ABCA1 expression	comparably up-regulated	transcriptionally induced	significant reduction of total and esterified cholesterol content	increased triglyceride levels
